“Also recorded” adds a separate entry of the source.

One data set deals with PANC1 cells. Description: Clonogenic survival assay of radiosensitization. Type of data set: cell-based, human. To be noted: 0.20 mM, 24 hrs. Here is the method:
FIG. 20 presents evidence of radiosensitization resulting from 24 hour 0.20 mM Au^3+ treatments (lower plot) compared against non-treated (upper plot) determined via clonogenic survival assay and in full cell media to PANC1 pancreatic cancer.
2.5. Evaluate radiosensitization efficacy and radiosensitization mechanisms for in situ synthetized GNCs. Based on the studies described in Sections 2.3-2.4, we selected the following conditions for radiosensitization studies in cell culture: 24 hr media conditioning by cells, 10% FBS (v/v) within, and 0.20 mM Au^3+ for 24 hrs.
A standard clonogenic assay was used to evaluate radiosensitization efficacy of intracellular synthetized GNC in PANC1 cells (FIG. 20). […] Dose enhancement factor at 10% surviving fraction (DEF10%) was calculated at 1.317 indicative of a strong radiosensitization in Au^3+ treated cells.

In data set [1] the test system is PANC1 pancreatic cancer. Description: TBARS assay of peroxidation product formation. It counts as cell-based, human. The settings on record: 24 hr post irradiation. Here is the method:
FIG. 25 reports on a mechanistic study of radiosensitization quantifying the ratio of peroxidation product formation resulting from X-ray damage through TBARS assay, resulting from 24 hour, 0.20 mM Au^3+ treatments (right) compared against non-treated (left) combined with either 0 Gy or 8 Gy x-ray irradiation. Treatments are in full cell media to PANC1 pancreatic cancer.
(§1) Further, we characterized the mechanisms of radiosensitization through (i) quantification of double stranded DNA breaks via y-H2AX Foci (FIG. 21), (ii) mitochondrial polarization via JC-1 assay (FIG. 22), (iii) NADP total (FIG. 23) and NADP:NADPH ratio (FIG. 24) via NADP(H) assay, and (iv) peroxidation production via TBARS assay (FIG. 25).

Data set [2] has as its system pancreatic cancer cells (LTPA) vs pancreatic non-cancerous cells (MS1). Description: Confocal fluorescence imaging of intracellular GNC formation, cancerous vs non-cancerous cells. Type of data set: cell-based. Here is the method: Hoechst 33342 stain was used for nuclear contrast. Red channel was used for detection of GNCs with 610 nm emission and 561 nm laser excitation. Scale bars are 25 μm.
Our initial evaluation of intracellular gold nanocluster formation was performed with pancreatic cancer cells (LTPA) and pancreatic non-cancerous cells (MS1) (FIG. 6A-6B). […] Live cell nuclear stain, Hoechst 33342, was used to define the location of nuclei.
Radiosensitization due to intracellular GNC formation (i.e., delivery of Au^3+) was compared between cancerous and non-cancerous cells using a standard clonal assay. For radiosensitization, cells were incubated with 0.1 mM of buffered chloroauric acid in cell culture media for 24 hours. Then, the cells were lifted and plated in 30 mm culture dishes at optimized cell densities for observation of colony formation following irradiation with X-rays at dosages ranging from 0 to 8 Gy (XRAD SmART). […] The radiosensitization results correlated well with the fluorescence images showing greater production of GNCs by cancerous cells (FIG. 6A-6B). For LTPA pancreatic cancer cells the surviving fraction values decreased by a factor of 2.3x and 3.5x for radiation of 4 Gy and 6 Gy, respectively, in cells treated with gold atoms compared to untreated control (FIG. 6B). […]

In data set [3] the test system is PANC1 pancreatic cancer. Description: JC-1 mitochondrial depolarization assay (cell viability). Type of data set: cell-based. The settings on record: 0.20-1.50 mM, 24 hour. On the procedure: FIG. 19 reports cell viability as a function of 24 hour Au^3+ treatments at varied concentrations determined via JC-1 mitochondrial depolarization assay and in full cell media to PANC1 pancreatic cancer.
The JC-1 assay measures the charge potential of the mitochondria of cells through the fluorometric ratio of the JC-1 dye (ThermoFisher Scientific, Waltham, Mass.). JC-1 is a cationic carbocyanine dye that accumulates in mitochondria. The dye exists as a monomer at low concentrations and yields green fluorescence, similar to fluorescein. […] These characteristics make JC-1 a sensitive marker for mitochondrial membrane potential. In other words, mitochondrial depolarization is indicated by a decrease in the red/green fluorescence intensity ratio. Mitochondrial depolarization is an indicator of reduced cell viability.
2.4. Characterize cytotoxicity of gold atom treatment. An MTS viability assay was used with 0-2.0 mM Au^3+ dose range. […] MTS assay was not usable at concentrations >0.75 mM Au^3+ due to intracellular formation of larger GNPs and their absorbance interfering with the MTS results. Therefore, at higher Au^3+ we switched to AO/PI live-dead staining (FIG. 15) and JC-1 mitochondrial depolarization assays (FIG. 19). JC-1 assay indicated cell viability ˜80% for concentrations between 0.20-1.50 mM Au^3+.

In data set [4] the test system is pancreatic noncancerous cells (HPDE). The data set is described as follows: Confocal fluorescence imaging of in situ GNC synthesis. Type of data set: cell-based. To be noted: 1 mM, 24 hours, 561 nm excitation, 610 nm emission. On the procedure:
FIG. 4 presents fluorescence confocal images of non-cancerous (HPDE) and cancerous (MIAPaCa2) pancreatic cells treated with either 1 mM of Au^3+ gold ions or premade albumin-GNCs at 1 mM Au^0 for 24 hours. (From left to right) Cells: untreated; treated with albumin-GNCs; treated with Au^3+ gold ions. […] The strong red fluorescence in cancer cells indicated intracellular synthesis of GNCs from gold ions. Scale bars are 25 μm.
We compared in situ synthesis of GNCs by pancreatic cancer cells (MIAPACA2) and pancreatic noncancerous cells (HPDE) (FIG. 4). Confocal fluorescence images were obtained using a Leica TCS SP8 confocal microscope with 561 nm excitation and 610 nm emission optimized for detection of GNCs.

For data set [5], the system named is PANC1 pancreatic cancer. The data set is described as follows: NADP(H) assay after irradiation. To be noted: 24 hr post-irradiation. It counts as cell-based, human. On the procedure:
FIG. 23 reports on a mechanistic study of radiosensitization quantifying total NADP through NADP assay measured at 0, 1, and 24 hours, resulting from 24 hour, 0.20 mM Au^3+ treatments (right four bars) compared against non-treated (left four bars) combined with either 0 Gy or 8 Gy x-ray irradiation. Treatments are in full cell media to PANC1 pancreatic cancer.
FIG. 24 reports on a mechanistic study of radiosensitization quantifying the ratio of NADP^+/NADPH through NADP assay measured at 0, 1, and 24 hours, resulting from 24 hour, 0.20 mM Au^3+ treatments (right) compared against non-treated (left) combined with either 0 Gy or 8 Gy x-ray irradiation. Treatments are in full cell media to PANC1 pancreatic cancer.
as §1

Data set [6] concerns PANC1 pancreatic cancer cells. The data set is described as follows: Longitudinal live cell confocal fluorescence imaging of the intracellular distribution of GNCs. The settings on record: 0.20 mM, 20 hr time period. Type of data set: cell-based, human. The text has this:
2.1. Intracellular distribution and time dependence of gold nanocluster (GNC) in situ formation. […] Then, we used longitudinal live cell confocal fluorescence imaging to observe time dependence of the intracellular distribution of GNCs formed through biomineralization of Au^3+.

As to `[Au+3].[Cl-].[Cl-].[Cl-].[Cl-].[H+]` [Au^3+, chloroauric acid], in the data set on PANC1 cells, the “Dose enhancement factor at 10% surviving fraction (DEF10%)” value is listed as 1.317. Further, the average surviving fraction is given as 47.3% in the data set with PANC1 cells (2 Gy), 7.3% with PANC1 cells (4 Gy) and 2.2% with PANC1 cells (6 Gy). For the same compound, in the data set with PANC1 pancreatic cancer [1], the “increase in peroxidation product formation” value is ~2 x. The “GNC formation in cancerous cells as compared to non-cancerous cells” value in data set [2] is on record as “striking increase in GNC formation”. In addition, the “cell viability (JC-1)” value with PANC1 pancreatic cancer [3] was ~80%. The “GNC fluorescence / GNC formation” value in data set [4] is “only sparsely seen”. Moreover, the “NADP total lower than for non-treated cells” value in the data set on PANC1 pancreatic cancer [5] was ~43%. Further, the “NADP:NADPH ratio larger than for non-treated cells” value in the data set with PANC1 pancreatic cancer [5] is recorded as 181%. In addition, the “subcellular region of greatest GNC formation” value in data set [6] was “nucleolus had the highest rate of GNC formation; also recorded: greatest in the nucleolus”.
